pIC50: −log10 of the molar value.
Assays:
[1] = Glutathione reactivity in human liver microsomes assessed as GSH-adduct formation at 10 uM incubated for 60 mins in presence of NADPH and GSH by HPLC-MS analysis; assay type: ADME, Microsome; details: 1 h
[2] = target: T1, hERG (KCNH2) (Homo sapiens, UniProt Q12809); assay: Inhibition of human ERG expressed in HEK293 cells at 3 uM incubated for 2 to 5 mins by Manual patch clamp assay relative to control; assay type: toxicity, cell-based; details: HEK293 cells expressing hERG, time 2-5 min
[3] = Metabolic stability in rat liver microsomes assessed as parent compound remaining at 10 uM measured after 10 mins in presence of NADPH and GSH by UPLC-MS/MS analysis; assay type: ADME, Microsome; details: read-out: Stability
[4] = Metabolic stability in human liver microsomes assessed as parent compound remaining at 10 uM measured after 10 mins in presence of NADPH and GSH by UPLC-MS/MS analysis; assay type: ADME, Microsome; details: read-out: Stability
[5] = target: T2, ATP-sensitive inward rectifier potassium channel 1 (Homo sapiens, UniProt P48048)
T2 sequence (P48048 whole entry): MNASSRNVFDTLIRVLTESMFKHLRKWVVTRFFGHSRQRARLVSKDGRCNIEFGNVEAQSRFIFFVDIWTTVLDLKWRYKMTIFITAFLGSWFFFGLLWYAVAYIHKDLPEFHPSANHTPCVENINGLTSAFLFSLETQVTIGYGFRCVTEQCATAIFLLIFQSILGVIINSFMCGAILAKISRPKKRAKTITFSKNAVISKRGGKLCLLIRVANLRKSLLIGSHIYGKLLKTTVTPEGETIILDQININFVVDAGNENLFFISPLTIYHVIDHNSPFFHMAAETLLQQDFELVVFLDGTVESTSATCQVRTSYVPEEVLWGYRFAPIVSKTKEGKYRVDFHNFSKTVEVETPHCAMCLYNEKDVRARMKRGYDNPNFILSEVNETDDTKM
Description: Inhibition of human ROMK expressed in T-REX-CHO cells incubated for 3 to 8 mins by whole cell manual patch clamp assay

[6] = target: T1, hERG (KCNH2); assay: Inhibition of human ERG expressed in HEK293 cells at 10 uM incubated for 2 to 5 mins by Manual patch clamp assay relative to control; assay type: toxicity, cell-based; details: HEK293 cells expressing hERG, time 2-5 min
[7] = target: T2, ATP-sensitive inward rectifier potassium channel 1; remark: listed apart in the source
Description: Inhibition of human ROMK expressed in T-REX-CHO cells incubated for 30 mins by thallium flux assay

[8] = target: T1, hERG (KCNH2); assay: Inhibition of human ERG expressed in HEK293 cells at 1 uM incubated for 2 to 5 mins by Manual patch clamp assay relative to control; assay type: toxicity, cell-based; details: HEK293 cells expressing hERG, time 2-5 min
[9] = target: Voltage-gated inwardly rectifying potassium channel KCNH2 (Homo sapiens, UniProt Q12809); assay: Inhibition of human ERG expressed in HEK293 cells incubated for 2 to 5 mins by Manual patch clamp assay; assay type: toxicity, cell-based
[10] = species: Homo sapiens; assay: Selectivity ratio of IC50 for inhibition of ERG expressed in HEK293 cells to IC50 for inhibition of human ROMK expressed in T-REX-CHO cells incubated for 30 mins by thallium flux assay; assay type: cell-based
[11] = species: Homo sapiens; assay: Selectivity ratio of IC50 for inhibition of ERG expressed in HEK293 cells to IC50 for inhibition of human ROMK expressed in T-REX-CHO cells incubated for 3 to 8 mins by whole cell manual patch clamp assay; assay type: cell-based

T1 sequence (Q12809 whole entry): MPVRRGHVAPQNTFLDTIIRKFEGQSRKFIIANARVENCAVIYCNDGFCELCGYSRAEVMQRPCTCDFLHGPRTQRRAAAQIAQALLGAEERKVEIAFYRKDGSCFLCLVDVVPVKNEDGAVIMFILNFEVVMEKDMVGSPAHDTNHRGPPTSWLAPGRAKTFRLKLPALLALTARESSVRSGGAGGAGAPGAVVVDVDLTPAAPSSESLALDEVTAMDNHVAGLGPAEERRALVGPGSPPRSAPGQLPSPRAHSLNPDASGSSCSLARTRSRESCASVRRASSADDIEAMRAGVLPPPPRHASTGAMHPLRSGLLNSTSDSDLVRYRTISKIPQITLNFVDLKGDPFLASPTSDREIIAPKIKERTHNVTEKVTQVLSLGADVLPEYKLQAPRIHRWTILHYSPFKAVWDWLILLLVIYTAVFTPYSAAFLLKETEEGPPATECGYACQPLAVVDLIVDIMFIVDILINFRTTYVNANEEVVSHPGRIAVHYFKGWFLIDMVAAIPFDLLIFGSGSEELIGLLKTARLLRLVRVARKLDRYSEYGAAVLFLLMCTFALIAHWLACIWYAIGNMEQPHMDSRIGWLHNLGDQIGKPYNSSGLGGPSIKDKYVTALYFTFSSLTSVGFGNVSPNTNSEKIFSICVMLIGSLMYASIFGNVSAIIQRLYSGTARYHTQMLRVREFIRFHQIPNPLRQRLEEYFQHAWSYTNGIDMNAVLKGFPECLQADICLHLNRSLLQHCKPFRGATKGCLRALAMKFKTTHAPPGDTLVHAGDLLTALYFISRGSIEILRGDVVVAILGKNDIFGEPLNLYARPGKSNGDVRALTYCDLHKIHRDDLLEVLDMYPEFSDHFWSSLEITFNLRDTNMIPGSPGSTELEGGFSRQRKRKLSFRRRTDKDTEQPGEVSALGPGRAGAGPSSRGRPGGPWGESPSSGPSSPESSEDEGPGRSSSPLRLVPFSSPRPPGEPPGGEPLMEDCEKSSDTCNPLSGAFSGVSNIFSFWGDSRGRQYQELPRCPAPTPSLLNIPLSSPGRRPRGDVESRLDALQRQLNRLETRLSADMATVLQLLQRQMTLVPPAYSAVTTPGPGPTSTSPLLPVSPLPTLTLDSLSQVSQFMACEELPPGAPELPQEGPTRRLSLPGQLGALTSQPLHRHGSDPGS
Chain of Voltage-gated inwardly rectifying potassium channel KCNH2 (Q12809 whole entry): as above

Row | SMILES | remaining at 10 min, 10 µM [3] | remaining at 10 min, 10 µM [4] | pIC50 [7] | inhibition at 1 µM [8] | other results
1 | Cc1cc(-n2cc(CN3CC(c4ccc5c(c4C)COC5=O)NCC3C)cn2)ncc1C#N (stereo not given) |  |  |  |  | Activity [1]: Active
2 | Cc1cc(-n2cc(CN3CC(O)CC(c4ccc5c(c4C)COC5=O)C3)cn2)ncc1C#N (stereo not given) | 50% | 54% |  |  | inhibition at 3 µM [2]: 76%; Activity [1]: Active
3 | Cc1cc(-n2ncc(CNC[C@H](O)c3ccc4c(c3C)COC4=O)n2)ncc1C#N | 94% | 92% | 7.28 |  | pIC50 [5]: 8.09; inhibition at 10 µM [6]: 87%
4 | Cc1cc(-n2cc(CN3CC(=O)N[C@H](c4ccc5c(c4C)COC5=O)C3)cn2)ncc1C#N | 67% | 64% |  |  | inhibition at 10 µM [6]: 42%
5 | Cc1cc(-c2ncc(CNC[C@H](O)c3ccc4c(c3C)COC4=O)s2)ncc1C#N | 33% | 85% |  |  | inhibition at 10 µM [6]: 72%
6 | Cc1cc(-n2cc(CN3CCN[C@H](c4ccc5c(c4C)COC5=O)C3)cn2)ncc1C#N | 90% | 96% |  |  | 
7 | Cc1cc(-n2cc(CN3C[C@H](CO)N[C@H](c4ccc5c(c4C)COC5=O)C3)cn2)ncc1C#N | 93% | 76% |  |  | Activity [1]: Not Active
8 | Cc1cc(-n2cc(CNC[C@H](O)c3ccc4c(c3C)COC4=O)c(C(F)F)n2)ncc1C#N | 1% | 18% |  |  | inhibition at 10 µM [6]: 77%
9 | Cc1cc(-n2cc(CN3CCNC(c4ccc5c(c4C)COC5=O)C3C)cn2)ncc1C#N (stereo not given) | 62% | 46% |  | 45% | Activity [1]: Active
10 | Cc1cc(-n2cc(CN3CC(O)C(c4ccc5c(c4C)COC5=O)C3)cn2)ncc1C#N (stereo not given) | 84% | 100% | 7.52 | 58% | 
11 | Cc1cc(-n2ncc(CN3C[C@@H](c4ccc5c(c4C)COC5=O)NC(C)(C)C3)n2)ncc1C#N | 100% | 62% |  |  | 
12 | Cc1cc(-n2cc(CN3CC[C@@H](O)[C@H](c4ccc5c(c4C)COC5=O)C3)cn2)ncc1C#N | 75% | 64% |  |  | Activity [1]: Not Active
13 | Cc1cc(-n2cc(CNC[C@H](O)c3ccc4c(c3C)COC4=O)cn2)ncc1C#N | 72% | 86% |  |  | 
14 | Cc1cc(-n2ncc(CN3CCN[C@H](c4ccc5c(c4C)COC5=O)C3)n2)ncc1C#N | 100% | 100% |  |  | 
15 | COc1c(CNC[C@H](O)c2ccc3c(c2C)COC3=O)cnn1-c1cc(C)c(C#N)cn1 |  |  |  | 91% | 
16 | Cc1cc(-n2cc(CN3CCO[C@H](c4ccc5c(c4C)COC5=O)C3)cn2)ncc1C#N | 60% | 49% |  | 26% | 
17 | Cc1cc(-n2cc(CN3CCCC(c4ccc5c(c4C)COC5=O)C3)cn2)ncc1C#N (stereo not given) | 29% | 59% |  | 75% | 
18 | Cc1cc(-n2cc(CN3C[C@@H](c4ccc5c(c4C)COC5=O)OC(C)(C)C3)cn2)ncc1C#N | 56% | 44% |  | 13% | 

Continued, in another order:

Row | remaining at 10 min, 10 µM [3] | remaining at 10 min, 10 µM [4] | pIC50 [7] | SMILES | inhibition at 1 µM [8] | other results
19 | 44% | 73% | 7.13 | N#Cc1ccc(-c2ncc3c(n2)CCN(C[C@H](O)c2ccc4c(c2)COC4=O)C3)cc1F | 50% | 
20 |  |  | 7.49 | N#Cc1ccc(-c2ccc3c(c2)CCN(C[C@H](O)c2ccc4c(c2)COC4=O)C3)cc1F | 97% | 
21 | 51% | 75% |  | Cc1c([C@@H](O)CNCc2ccc(-c3ccc(C#N)c(F)c3)nc2)ccc2c1COC2=O | 66% | 
22 | 8% | 72% | 7.23 | N#Cc1ccc(-c2ccc3c(c2)CCN(CCc2ccc4c(c2)COC4=O)C3)cc1F |  | pIC50 [5]: 7.89; pIC50 [9]: 8.00
23 | 7% | 40% |  | Cc1c([C@@H](O)CN(C)Cc2ccc(-c3ccc(C#N)c(F)c3)nc2)ccc2c1COC2=O | 68% | 
24 | 96% | 62% | 8.06 | Cc1c([C@@H](O)CN2CCc3nc(-c4ccc(C#N)c(F)c4)ncc3C2)ccc2c1COC2=O | 71% | pIC50 [5]: 8.03; pIC50 [9]: 6.39; Ratio IC50 [10]: 40; Ratio IC50 [11]: 40
25 | 46% | 90% |  | Cc1cc(-c2ccc(CNC[C@H](O)c3ccc4c(c3C)COC4=O)cn2)ncc1C#N |  | inhibition at 10 µM [6]: 71%
26 | 1% | 12% | 6.37 | Cc1cc(-n2ccc(CNC[C@H](O)c3ccc4c(c3C)COC4=O)n2)ncc1C#N |  | inhibition at 10 µM [6]: 59%
27 | 67% | 97% | 7.34 | Cc1cc(-n2cnc(CNC[C@H](O)c3ccc4c(c3C)COC4=O)c2)ncc1C#N |  | inhibition at 10 µM [6]: 72%
28 |  |  | 7.21 | N#Cc1ccc(-c2ccc3c(n2)CCN(C[C@H](O)c2ccc4c(c2)COC4=O)C3)cc1F | 80% | pIC50 [5]: 7.43

— ChEMBL document CHEMBL5512682, “Discovery of BMS-986308: A Renal Outer Medullary Potassium Channel Inhibitor for the Treatment of Heart Failure” (J Med Chem, 2024)
